Laboratory results taken from patent US11492671B2, “MiRNAs for treatment and in vitro diagnosis of drug resistant tumors” (ISTITUTI FISIOTERAPICI OSPITALIERI, priority 2018, dated 2022).

What was measured:
[1] = test system: sensitive M14 and WM266 melanoma cells; assay: Apoptosis induction measured by Caspase 3/7 activation after transient transfection, with or without a BRAFi; assay type: cell-based, human; conditions: enforced expression by transient transfection, FIG. 13; for BRAFi induction of apoptosis, measured by Caspase 3/7 activation: in the presence of a BRAFi
Procedure: (§1) Next, the biological consequences of overexpressing or inhibiting the expression of the four selected miRNAs above miR-4443, miR-4488, miR-204-5p and miR-199b-5p were assessed by transient transfections in sensitive M14 and WM266 melanoma cells in the presence or not of a BRAFi in order to evaluate melanoma cell proliferation and apoptosis induction.

[2] = test system: sensitive M14 and WM266 melanoma cells; assay: Cell viability / proliferation after transient transfection of miRNAs, with or without a BRAFi; assay type: cell-based, human; conditions: enforced expression by transient transfection, FIG. 12; for effect of BRAFi on cell viability: in the presence of a BRAFi
Procedure: (§2) Viability of cells was examined with 3-(4,5-dimethylthiazol-2-yl)-2,5-diphenyltetrazolium bromide Cell Titer 96 AQueous One Solution Cell Proliferation Assay (Promega), according to the manufacturer's protocol. The plates were analyzed in a Multilabel Counter (Bio-Rad Laboratories). Cell viability was also determined by crystal violet staining. Briefly, the cells were stained for 20 min at room temperature with staining solution (0.5% crystal violet in 30% methanol), washed four times with water and then dried. Cells were then dissolved in a Methanol/SDS solution and the adsorbance (595 nm) was read using a microplate ELISA reader.
as §1

A375^DR melanoma cells = assay: Colony formation / growth of cells double resistant to BRAF and MEK inhibitors; assay type: cell-based, human; conditions: miRNAs targeted individually; FIG. 18 left
From the text: Data are mean±s.d. from three independent experiments. P<0.05.
Human melanoma cell lines M14 (ATCC® HTB-129™) and A375 (ATCC® CRL-1619™) (both V600E) were from American Type Culture Collection (ATCC®). LOX IMVI (V600E) melanoma cell line (EZT-LOXI-1) was from EZ Byosistems™. WM266 melanoma cell line (V600D)(WM266-4-01-0001) was from ROCKLAND™ antibodies & assays. Resistant melanoma cells were selected by treating them for about two months with increasing drug concentrations every two weeks (from 50 nM to 2 μM). A375^DR cells were selected in the presence of both BRAF and MEK inhibitors, as previously done for M14^R, WM266^R, LOX IMVI^R and A375^R. All human melanoma cell lines used in the present work were cultured in RPMI supplemented with 10% (vol/vol) FBS. Human umbilical vein endothelial cells (HUVEC)s, were employed between the third and the seventh passage, were grown in Eagle Basal Medium (EBM) supplemented with 4% FBS, 0.1% gentamicin, 1 μg/mL hydrocortisone, […] and 12 μg/mL bovine brain extract (Cambrex, Bio Science).
Next, the growth inhibitory effect of simultaneously targeting miRNAs combinations was determined. In detail, for these experiments antagomiRs recognising the UPMIRNAs (amiR-4443: aaaacccacgcctccaa (SEQ ID NO: 10) and amiR-4488: cgccggagcccgccccct (SEQ ID NO: 11)) in different combinations with DOWNMIRNAs mimics (miR-204-5p: […] (SEQ ID NO: 2) and miR-199b-5p […] (SEQ ID NO: 1)) were transiently transfected in melanoma cell lines. […] In addition, the effect of targeting miRNAs individually or in combinations was assessed in a cell line rendered double resistant to both BRAF and MEK inhibitors (called A375^DR). Other investigators have previously reported that double drug resistant melanoma cell lines are more difficult to growth inhibit (5). In fact no growth inhibition was observed effect on A375^DR when the four selected miRNAs were targeted individually (FIG. 18, left panel). […]

[3] = test system: human umbilical vein endothelial cells (HUVEC); assay: Endothelial tube formation assay on matrigel; assay type: cell-based
Procedure: Growth factor reduced Matrigel (10 μL/well) was allowed to polymerize for 1 h on angiogenesis 96 well μ-plates (ibidi, GmbH) at 37° C., 5% CO2. HUVEC (5×10^3 cells/well) suspended in 50 μL of pre-warmed Eagle Basal Medium (CTRL), 10% FBS, or conditioned media from WM266^S, or WM266^R cells, were seeded on matrigel and allowed to form tubes at 37° C. in humidified air with 5% CO2 for 6 h. In order to quantify tube formation, images were acquired and the number of tubes formed by cord-like structures exceeding 100 μm in length were visualized using Axiovision 4.8 software (Carl Zeiss) and counted.
This finding was of particular interest in the light of the known involvement of VEGF in melanoma progression and resistance to therapy (23). […] Of note, for our results only tube-like structures exceeding 100 μm in length were considered. […] As control, 10% FBS employed as a source of angiogenic growth factors, elicited a considerable response rising to 204% over basal (FIG. 24). […] In order to find a correlation between miRNAs deregulation and […]

[4] = test system: VEGFA in WM266^R melanoma cells; assay: Western blot analysis of VEGFA protein levels after miRNA transfection; assay type: cell-based, human; conditions: miRNA overexpressed in WM266^R cells vs Scrambled miRNA; FIG. 26
From the text: FIG. 26 WM266^R melanoma cells transfected with Scrambled miRNA or miR-199b-5p were harvested and subjected to Western blot analysis to detect VEGFA and GAPDH protein levels.
Antibodies against VEGFA and GAPDH were obtained from Santa Cruz Biotechnology. Vemurafenib and trametinib were obtained from Selleck Chemicals. TaqMan probes for GAPDH, VEGF, BCL2, miR-4443, miR-4488, miR-204-5p, miR-199b-5p, miR-630, miR-1234, is-3676 (previously named miR-3676-3p), miR-145-5p and RNU48 were purchased from Applied Biosystems. Melanoma cells were lysed with RIPA buffer; 50 μg of total protein were resolved under reducing conditions by 8% SDS-PAGE and transferred to reinforced nitrocellulose (BA-S 83, Schleider and Schuell, Keene, N.H., USA). The membranes were blocked with 5% non fat dry milk in PBS 0.1% Tween 20, and incubated with the different primary antibodies. The membranes were rehydrated and probed with anti-GAPDH, to estimate the protein equal loading. Densitometric analysis was performed using Quantity One Program (Bio-Rad Laboratories GmbH) and results were expressed as mean values from three independent experiments.
VEGF increased expression and release members of miR-199 family were considered (25). […] Therefore, miR-199b-5p was overexpressed in WM266^R cells.

M14^S melanoma cells = assay: Development of BRAFi-resistant colonies under chronic BRAFi exposure; assay type: cell-based, human; conditions: miRNA overexpressed, cells exposed chronically to a BRAFi (1 μM vemurafenib) for 28 days; FIG. 16
Procedure: FIG. 16 M14^S melanoma cells were transfected with the indicated miRNAs for 72 h and then stained with Crystal violet (day 0). The remaining plates were treated with 1 μM vemurafenib every 48 h and then stained after 7, 14, 21 and 28 days. Data are mean±s.d. from three independent experiments. P<0.05. The pictures shown are representative of three independent experiments.
Hereafter, the effects of the DOWNMIRNAs on the development of drug resistance in vitro were determined. […] In contrast, growth of control cells transfected with scrambled-miRNA was initially impaired by the presence of a BRAF inhibitor (from 7 to 21 days of drug exposure), but gave rise to resistant colonies at later times (day 28) (FIG. 16).

[5] = test system: drug sensitive and resistant M14 cells; assay: In vitro short term colony formation assay; assay type: cell-based, human; conditions: overexpression in BRAFi drug resistant cells (M14^R); FIG. 15
Procedure: as §2, with “reader. […]” for “reader.”

miR-4443: UPMIRNA, uuggaggcguggguuuu (SEQ ID NO: 10), enforced expression by transient transfection (UUGGAGGCGUGGGUUUU; listed as RNA, chemistry not given here; listed as Homo sapiens)
BRAFi induction of apoptosis, measured by Caspase 3/7 activation [1]: decreases the effect of BRAFi | effect of BRAFi on cell viability [2]: decreases the effect of BRAFi

amiR-4488: antagomiR recognising miR-4488: cgccggagcccgccccct (antisense CGCCGGAGCCCGCCCCCT; listed as DNA, chemistry not given here)
A375^DR colony formation / growth inhibition (A375^DR melanoma cells): not able to affect

miR-199b-5p: miRNA mimic: cccaguguuuagacuaucuguuc (SEQ ID NO:1) (CCCAGUGUUUAGACUAUCUGUUC; listed as RNA, chemistry not given here; listed as Homo sapiens)
A375^DR colony formation / growth inhibition (A375^DR melanoma cells): not able to affect | tube formation induced by CM from transfected WM266^R cells ([3]; conditioned medium of WM266^R cells transfected with the miRNA, FIG. 27): lost the capability to induce tube formation | BRAFi induction of apoptosis, measured by Caspase 3/7 activation [1]: potentiates BRAFi activity | apoptosis (Caspase 3/7 activation) [1]: induces apoptosis | effect of BRAFi on cell viability [2]: potentiates BRAFi activity | cell proliferation [2]: inhibits cell proliferation | VEGF expression (Western Blot) [4]: able to reduce specifically VEGF expression | ability to form BRAFi-resistant colonies (M14^S melanoma cells): completely lost the ability to form BRAFi-resistant colonies | colony formation [5]: strongly impaired colony formation

amiR-4443: antagomiR recognising miR-4443: aaaacccacgcctccaa (antisense AAAACCCACGCCTCCAA; listed as DNA, chemistry not given here)
A375^DR colony formation / growth inhibition (A375^DR melanoma cells): not able to affect

miR-4488: UPMIRNA, agggggcgggcuccggcg (SEQ ID NO: 11), enforced expression by transient transfection (AGGGGGCGGGCUCCGGCG; listed as RNA, chemistry not given here; listed as Homo sapiens)
BRAFi induction of apoptosis, measured by Caspase 3/7 activation [1]: decreases the effect of BRAFi | effect of BRAFi on cell viability [2]: decreases the effect of BRAFi

Avastin: used to inhibit VEGFR activity; called VEGFR inhibitor [reference compound]
tube formation induced by CM from WM266^R melanoma cells ([3]; addition of VEGFR inhibitor, FIG. 25): significantly inhibited
